The target in the assay is T1, Human Nav1.7 (Homo sapiens, UniProt Q15858).
T1 construct: expressed in transfected cells; host or cells: Spiking HEK cells (without Kir2.1 transfection)
As to the kind of experiment: IonWorks Barracuda (IWB) automated patch clamp assay. The following applies: human Nav1.7 currents, HEK cells, population patch-clamp, state- and use-dependent voltage protocol; read-out: hNaV1.7 IWB-U IC50. Format: cell-based. On the procedure: Ionaworks Barracuda […] Automated Patch Clamp Assay (Same Protocol for Both Human and Mouse)
Human Nav1.7 currents were recorded in population patch-clamp mode with the IWB automated electrophysiology system (Molecular Devices, LLC, Sunnyvale, Calif.). Spiking HEK cells (without Kir2.1 transfection) were cultured and prepared for recordings as previously described for IonWorks Quattro testing^1. The external solution consisted of the following (in mM): NaCl 140, KCl 5, CaCl2 2, MgCl2 1, HEPES 10, and glucose 11, pH 7.4, with N-methyl-D-glucamine at 320 mOsmol. […] From a holding potential of −110 mV, currents were elicited by a train of 26 depolarizations of 150 ms duration to −20 mV at a frequency of 5 Hz. Cells were then clamped to −20 mV for a period of 4 minutes in the presence of a single concentration of test compound. Following this compound incubation period, cells were clamped to −110 mV for three seconds to recover unbound channels and put through the same 26 pulse voltage protocol as above. Peak inward current during the 26th pulse to −20 mV in the presence of compound was divided by the peak inward current evoked by the 26th pulse to −20 mV in the absence of compound to determine percent inhibition. Concentration-response curves of percent inhibition as a function of concentration were generated to calculate IC50 values as described in Kornecook, T. J.; Yin, R.; Altmann, S.; et al. Pharmacologic Characterization of AMG8379, a Potent and Selective Small Molecule Sulfonamide Antagonist of the Voltage-Gated Sodium Channel NaV1. 7.
The potency of the compounds of the present invention were evaluated on human Nav1.7 channels using the above described IonWorks Barracuda automated electrophysiology platform that evaluates the ability of compounds to block sodium conductance through Nav1.7 channels. A voltage-protocol that prosecutes both state-dependent as well as use-dependent inhibition was used as these modes of action are thought to be more relevant for the native state of Nav1.7 channels in pain sensing neurons in vivo.
On the technique in general: Patch clamp records ionic current or voltage across a cell membrane.

T1 sequence (Q15858 whole entry): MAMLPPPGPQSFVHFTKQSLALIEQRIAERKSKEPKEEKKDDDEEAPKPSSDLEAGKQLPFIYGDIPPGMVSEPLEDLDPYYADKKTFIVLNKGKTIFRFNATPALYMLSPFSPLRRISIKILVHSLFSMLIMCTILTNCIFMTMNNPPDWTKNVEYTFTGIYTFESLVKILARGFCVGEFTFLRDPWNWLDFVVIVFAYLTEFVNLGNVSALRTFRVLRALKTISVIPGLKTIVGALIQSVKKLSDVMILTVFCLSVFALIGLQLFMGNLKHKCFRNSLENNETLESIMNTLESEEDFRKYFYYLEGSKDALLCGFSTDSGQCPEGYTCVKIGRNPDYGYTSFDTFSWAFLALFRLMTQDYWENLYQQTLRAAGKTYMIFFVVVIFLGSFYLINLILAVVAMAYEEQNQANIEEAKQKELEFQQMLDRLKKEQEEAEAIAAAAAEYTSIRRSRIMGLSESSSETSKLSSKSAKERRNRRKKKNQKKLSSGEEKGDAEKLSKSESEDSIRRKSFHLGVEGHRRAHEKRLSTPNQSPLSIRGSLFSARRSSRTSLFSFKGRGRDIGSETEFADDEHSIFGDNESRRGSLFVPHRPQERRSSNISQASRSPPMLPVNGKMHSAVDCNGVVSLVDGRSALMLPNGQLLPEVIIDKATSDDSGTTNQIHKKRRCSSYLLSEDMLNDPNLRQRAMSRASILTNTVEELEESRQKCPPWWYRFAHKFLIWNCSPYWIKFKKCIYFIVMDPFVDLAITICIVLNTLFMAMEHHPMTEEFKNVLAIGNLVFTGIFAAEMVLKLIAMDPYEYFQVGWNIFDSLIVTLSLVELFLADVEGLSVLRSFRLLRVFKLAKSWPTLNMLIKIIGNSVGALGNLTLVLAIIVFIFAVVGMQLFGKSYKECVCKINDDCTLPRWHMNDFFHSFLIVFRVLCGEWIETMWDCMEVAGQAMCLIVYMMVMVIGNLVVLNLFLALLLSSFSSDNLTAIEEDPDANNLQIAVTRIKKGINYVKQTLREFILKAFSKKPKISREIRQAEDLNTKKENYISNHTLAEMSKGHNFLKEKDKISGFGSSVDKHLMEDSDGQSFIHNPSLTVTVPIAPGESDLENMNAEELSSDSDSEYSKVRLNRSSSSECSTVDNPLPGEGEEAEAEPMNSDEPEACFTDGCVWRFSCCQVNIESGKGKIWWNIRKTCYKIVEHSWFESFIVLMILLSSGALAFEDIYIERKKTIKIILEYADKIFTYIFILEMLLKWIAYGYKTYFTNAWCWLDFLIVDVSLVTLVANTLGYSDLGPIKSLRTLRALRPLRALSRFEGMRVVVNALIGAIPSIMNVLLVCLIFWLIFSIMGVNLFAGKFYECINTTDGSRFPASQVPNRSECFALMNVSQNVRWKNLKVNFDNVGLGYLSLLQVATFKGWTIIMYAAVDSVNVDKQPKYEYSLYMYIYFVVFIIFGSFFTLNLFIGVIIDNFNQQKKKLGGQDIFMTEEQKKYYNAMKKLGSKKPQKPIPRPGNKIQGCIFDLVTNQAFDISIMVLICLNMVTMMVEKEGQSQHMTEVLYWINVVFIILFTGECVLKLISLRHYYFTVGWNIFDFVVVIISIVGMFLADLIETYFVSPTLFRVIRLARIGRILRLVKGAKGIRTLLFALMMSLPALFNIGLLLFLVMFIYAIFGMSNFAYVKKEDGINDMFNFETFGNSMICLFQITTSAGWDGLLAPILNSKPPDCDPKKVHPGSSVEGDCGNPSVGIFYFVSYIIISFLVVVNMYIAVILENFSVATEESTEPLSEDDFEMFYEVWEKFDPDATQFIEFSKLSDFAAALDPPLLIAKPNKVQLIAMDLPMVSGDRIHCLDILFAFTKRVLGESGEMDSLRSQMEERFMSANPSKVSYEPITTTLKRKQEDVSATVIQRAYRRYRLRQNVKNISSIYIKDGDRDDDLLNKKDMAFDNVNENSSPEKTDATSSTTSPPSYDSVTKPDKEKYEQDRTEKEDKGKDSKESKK

For `COc1cc(C2CC(C(C)(C)C)C2)c(F)cc1-n1c(=O)ccc2cc(S(=O)(=O)Nc3ccon3)ccc21` (atropisomer, axis not shown; (P)) [Example 3, (P)-1-(4-(3-(tert-butyl)cyclobutyl)-5-fluoro-2-methoxyphenyl)-N-(isoxazol-3-yl)-2-oxo-1,2-dihydroquinoline-6-sulfonamide], the IC50 (in general, the concentration that gives 50% inhibition) came out at 33 nM.

`COc1cc(C2CC(F)(F)C2)c(F)cc1-n1c(=O)ccc2cc(S(=O)(=O)Nc3ccon3)ccc21` (atropisomer, axis not shown; (P)) [Example 4, (P)-1-(4-(3,3-difluorocyclobutyl)-5-fluoro-2-methoxyphenyl)-N-(isoxazol-3-yl)-2-oxo-1,2-dihydroquinoline-6-sulfonamide]: the IC50 is 15 nM.

On to `COc1cc(C2CC(F)(C(F)(F)F)C2)c(F)cc1-n1c(=O)ccc2cc(S(=O)(=O)Nc3ccon3)ccc21` (atropisomer, axis not shown; (P)) [Example 5, (P)-1-(5-fluoro-4-(3-fluoro-3-(trifluoromethyl)cyclobutyl)-2-methoxyphenyl)-N-(isoxazol-3-yl)-2-oxo-1,2-dihydroquinoline-6-sulfonamide], for which the IC50 stood at 2 nM.

For `COc1cc([C@H]2C[C@@](F)(C(F)(F)F)C2)c(F)cc1-n1c(=O)ccc2cc(S(=O)(=O)Nc3ccon3)ccc21` (atropisomer, axis not shown; (P)) [Example 8, trans-(P)-1-(5-fluoro-4-(3-fluoro-3-(trifluoromethyl)cyclobutyl)-2-methoxyphenyl)-N-(isoxazol-3-yl)-2-oxo-1,2-dihydroquinoline-6-sulfonamide], the half-inhibitory concentration (IC50) is 5 nM.

Turning to `COc1cc([C@H]2C[C@](F)(C(F)(F)F)C2)c(F)cc1-n1c(=O)ccc2cc(S(=O)(=O)Nc3ccon3)ccc21` (atropisomer, axis not shown; (P)) [Example 9, cis-(P)-1-(5-fluoro-4-(3-fluoro-3-(trifluoromethyl)cyclobutyl)-2-methoxyphenyl)-N-(isoxazol-3-yl)-2-oxo-1,2-dihydroquinoline-6-sulfonamide], the IC50 came to 2 nM.

With `COc1cc([C@H]2C[C@](F)(C(F)(F)F)C2)c(Cl)cc1-n1c(=O)ccc2cc(S(=O)(=O)Nc3ccon3)ccc21` (atropisomer, axis not shown; (P)) [Example 10, cis-(P)-1-(5-chloro-4-(3-fluoro-3-(trifluoromethyl)cyclobutyl)-2-methoxyphenyl)-N-(isoxazol-3-yl)-2-oxo-1,2-dihydroquinoline-6-sulfonamide], the IC50 was 8 nM.

Consider `COc1cc([C@H]2C[C@@](F)(C(F)(F)F)C2)c(Cl)cc1-n1c(=O)ccc2cc(S(=O)(=O)Nc3ccon3)ccc21` (atropisomer, axis not shown; (P)) [Example 11, trans-(P)-1-(5-chloro-4-(3-fluoro-3-(trifluoromethyl)cyclobutyl)-2-methoxyphenyl)-N-(isoxazol-3-yl)-2-oxo-1,2-dihydroquinoline-6-sulfonamide], for which the half-maximal inhibitory concentration (IC50) came to 2 nM.

As for `COc1cc(C2CCC2)c(F)cc1-n1c(=O)ccc2cc(S(=O)(=O)Nc3ccon3)ccc21` (atropisomer, axis not shown; (P)) [Example 14, (P)-1-(4-cyclobutyl-5-fluoro-2-methoxyphenyl)-N-(isoxazol-3-yl)-2-oxo-1,2-dihydroquinoline-6-sulfonamide], the IC50 worked out at 16 nM.

Turning to `COc1cc([C@H]2C[C@@H](C(F)(F)F)C2)c(Cl)cc1-n1c(=O)ccc2cc(S(=O)(=O)Nc3ncccn3)ccc21` (atropisomer, axis not shown; (P)) [Example 16, cis-(P)-1-(5-chloro-2-methoxy-4-(3-(trifluoromethyl)cyclobutyl)phenyl)-2-oxo-N-(pyrimidin-2-yl)-1,2-dihydroquinoline-6-sulfonamide], the IC50 amounted to 18 nM.

In the case of `COc1cc([C@H]2C[C@H](C(F)(F)F)C2)c(Cl)cc1-n1c(=O)ccc2cc(S(=O)(=O)Nc3ncccn3)ccc21` (atropisomer, axis not shown; (P)) [Example 17, trans-(P)-1-(5-chloro-2-methoxy-4-(3-(trifluoromethyl)cyclobutyl)phenyl)-2-oxo-N-(pyrimidin-2-yl)-1,2-dihydroquinoline-6-sulfonamide], the concentration for half-maximal inhibition (IC50) worked out at 15 nM.

Regarding `COc1cc(C2CCC2)c(Cl)cc1-n1c(=O)ccc2cc(S(=O)(=O)Nc3ncccn3)ccc21` (atropisomer, axis not shown; (P)) [Example 18, (P)-1-(5-chloro-4-cyclobutyl-2-methoxyphenyl)-2-oxo-N-(pyrimidin-2-yl)-1,2-dihydroquinoline-6-sulfonamide], the IC50 came to 22 nM.

In the case of `COc1cc([C@H]2C[C@H](C(F)(F)F)C2)c(Cl)cc1-n1c(=O)ccc2cc(S(=O)(=O)Nc3cccnn3)ccc21` (atropisomer, axis not shown; (P)) [Example 19, trans-(P)-1-(5-chloro-2-methoxy-4-(3-(trifluoromethyl)cyclobutyl)phenyl)-2-oxo-N-(pyridazin-3-yl)-1,2-dihydroquinoline-6-sulfonamide], the IC50 stood at 15 nM.

Regarding `COc1cc([C@H]2C[C@H](C(F)(F)F)C2)c(C)cc1-n1c(=O)ccc2cc(S(=O)(=O)Nc3ccon3)ccc21` (atropisomer, axis not shown; (P)) [Example 20, trans-(P)—N-(isoxazol-3-yl)-1-(2-methoxy-5-methyl-4-(3-(trifluoromethyl)cyclobutyl)phenyl)-2-oxo-1,2-dihydroquinoline-6-sulfonamide], the IC50 came out at 12 nM.

For `COc1cc(C2CCC2)c(Cl)cc1-n1c(=O)ccc2cc(S(=O)(=O)Nc3ccon3)ccc21` (atropisomer, axis not shown; (P)) [Example 21, (P)-1-(5-chloro-4-cyclobutyl-2-methoxyphenyl)-N-(isoxazol-3-yl)-2-oxo-1,2-dihydroquinoline-6-sulfonamide], the IC50 was 12 nM.

Regarding `COc1cc(C2CCC2)c(C)cc1-n1c(=O)ccc2cc(S(=O)(=O)Nc3ccon3)ccc21` (atropisomer, axis not shown; (P)) [Example 22, (P)-1-(4-cyclobutyl-2-methoxy-5-methylphenyl)-N-(isoxazol-3-yl)-2-oxo-1,2-dihydroquinoline-6-sulfonamide], the IC50 was determined as 50 nM.

On to `COc1cc(C2CCC2)c(F)cc1-n1c(=O)ccc2cc(S(=O)(=O)Nc3cccnn3)ccc21` (atropisomer, axis not shown; (P)) [Example 23, (P)-1-(4-cyclobutyl-5-fluoro-2-methoxyphenyl)-2-oxo-N-(pyridazin-3-yl)-1,2-dihydroquinoline-6-sulfonamide], for which the IC50 was 102 nM.

With `COc1cc(C2CCC2)c(F)cc1-n1c(=O)ccc2cc(S(=O)(=O)Nc3ncco3)ccc21` (atropisomer, axis not shown; (P)) [Example 24, (P)-1-(4-cyclobutyl-5-fluoro-2-methoxyphenyl)-N-(oxazol-2-yl)-2-oxo-1,2-dihydroquinoline-6-sulfonamide], the IC50 was 13 nM.

Take `COc1cc(C2CCC2)ccc1-n1c(=O)ccc2cc(S(=O)(=O)Nc3ccon3)ccc21` (atropisomer, axis not shown; (P)) [Example 25, (P)-1-(4-cyclobutyl-2-methoxyphenyl)-N-(isoxazol-3-yl)-2-oxo-1,2-dihydroquinoline-6-sulfonamide]: the half-maximal inhibitory concentration (IC50) was 37 nM.

As for `COc1cc(C2CCC2)ccc1-n1c(=O)ccc2cc(S(=O)(=O)Nc3ncccn3)ccc21` (atropisomer, axis not shown; (P)) [Example 26, (P)-1-(4-cyclobutyl-2-methoxyphenyl)-2-oxo-N-(pyrimidin-2-yl)-1,2-dihydroquinoline-6-sulfonamide], the 50% inhibitory concentration (IC50) was 80 nM.

For the molecule `COc1cc(C2CCC2)c(C)cc1-n1c(=O)ccc2cc(S(=O)(=O)Nc3ncccn3)ccc21` (atropisomer, axis not shown; (P)) [Example 27, (P)-1-(4-Cyclobutyl-2-Methoxy-5-Methylphenyl)-2-Oxo-N-(Pyrimidin-2-Yl)-1,2-Dihydro Quinoline-6-Sulfonamide], the IC50 is 104 nM.

Turning to `COc1cc(C2CCC2)c(F)cc1-n1c(=O)ccc2cc(S(=O)(=O)Nc3ncccn3)ccc21` (atropisomer, axis not shown; (P)) [Example 28, (P)-1-(4-cyclobutyl-5-fluoro-2-methoxyphenyl)-2-oxo-N-(pyrimidin-2-yl)-1,2-dihydroquinoline-6-sulfonamide], the IC50 turned out to be 54 nM.

With `COc1cc(C2CCC2)ccc1-n1c(=O)ccc2cc(S(=O)(=O)Nc3ncco3)ccc21` (atropisomer, axis not shown; (P)) [Example 29, (P)-1-(4-cyclobutyl-2-methoxyphenyl)-N-(oxazol-2-yl)-2-oxo-1,2-dihydroquinoline-6-sulfonamide], the 50% inhibitory concentration (IC50) came out at 37 nM.

(Values after patent publication US20210387978A1, “CYCLOBUTYL DIHYDROQUINOLINE SULFONAMIDE COMPOUNDS” (AMGEN INC., priority 2020, published 2021).)
